Measurements published in the OPERA property sets (Mansouri et al. 2018).

Question: What does the source list for `Clc1cc(Cl)nc(Cl)n1`?
Answer: boiling point: 212 °C; melting point: 22.5 °C

Question: For `CNC(=O)Oc1cc(C)cc(C)c1`, which log10 Koc (L/kg) is on record?
Answer: The log10 Koc (L/kg) was 1.71.

Question: What about the log10 vapour pressure (mmHg) of the same compound?
Answer: Its log10 vapour pressure (mmHg) is -3.44.

Question: What about the melting point of the same compound?
Answer: The melting point was 99 °C.

Question: And the ready biodegradability?
Answer: The ready biodegradability was “not readily biodegradable”.

Question: Which melting point does the source give for `CCOC(=O)NP(=O)(N1CC1)N1CC1` here?
Answer: Its melting point is 89 °C.

Question: Which boiling point does the source give for `CCCCCCCCCCCCCCCN` here?
Answer: The boiling point was 308 °C.

Question: What about the melting point of the same compound?
Answer: Its melting point is 37.3 °C.

Question: Which boiling point does the source give for `CC1CCC1` here?
Answer: Its boiling point is 36.3 °C.

Question: And the log10 vapour pressure (mmHg)?
Answer: The log10 vapour pressure (mmHg) was 3.17.

Question: And the melting point?
Answer: Its melting point is -162 °C.

Question: Which results are given for `O=NN(c1ccccc1)c1ccccc1`?
Answer: log10 Koc (L/kg): 3.08; melting point: 66.5 °C; ready biodegradability: readily biodegradable

Question: With `CCCCCC(CC)CC` as the compound, how does the boiling point read?
Answer: Its boiling point is 166 °C.

Question: With `CCCCC(=O)O` as the compound, how does the boiling point read?
Answer: Its boiling point is 186 °C.

Question: What about the log10 Henry constant (atm·m³/mol) of the same compound?
Answer: The log10 Henry constant (atm·m³/mol) was -6.33.

Question: And the log10 vapour pressure (mmHg)?
Answer: The log10 vapour pressure (mmHg) was -0.708.

Question: What about the melting point of the same compound?
Answer: The melting point was -34 °C.

Question: And the ready biodegradability?
Answer: The ready biodegradability was “readily biodegradable”.

Question: Which boiling point does the source give for `Cc1cccc(C)c1C` here?
Answer: Its boiling point is 176 °C.

Question: And the log10 Henry constant (atm·m³/mol)?
Answer: Its log10 Henry constant (atm·m³/mol) is -2.36.

Question: And the log10 Koc (L/kg)?
Answer: The log10 Koc (L/kg) was 2.8.

Question: What about the log10 biodegradation half-life (days) of the same compound?
Answer: Its log10 biodegradation half-life (days) is 0.602.

Question: And the log10 vapour pressure (mmHg)?
Answer: Its log10 vapour pressure (mmHg) is 0.228.

Question: What about the melting point of the same compound?
Answer: The melting point was -25.4 °C.

Question: What about the ready biodegradability of the same compound?
Answer: The ready biodegradability was “not readily biodegradable”.

Question: For `CN(C)c1ccc(O)cc1`, which melting point is on record?
Answer: The melting point was 77 °C.

Question: Which boiling point does the source give for `FC(Cl)C(F)Cl` (stereo not given) here?
Answer: The boiling point was 46.8 °C.

Question: Which ready biodegradability does the source give for `CCCCCCCCCC(=O)N(CCO)CCO` here?
Answer: The ready biodegradability was “readily biodegradable”.

Question: For `CCCC[N+](CCCC)(CCCC)CCCC.[I-]`, which melting point is on record?
Answer: The melting point was 148 °C.

Question: For `CC1(C)CC1`, which boiling point is on record?
Answer: Its boiling point is 20.6 °C.

Question: What about the melting point of the same compound?
Answer: The melting point was -109 °C.

Question: Which melting point does the source give for `Oc1ccc2ccc(O)cc2c1` here?
Answer: Its melting point is 193 °C.

Question: Which melting point does the source give for `CNC(=O)Oc1ccc2c(c1)[C@]1(C)CCO[C@@H]1N2C` here?
Answer: The melting point was 124 °C.

Question: For `O=C(O)c1ccnc(C(=O)O)c1C(=O)O`, which melting point is on record?
Answer: Its melting point is 250 °C.

Question: For `CCN(CC)C(=O)C(Cl)=C(C)OP(=O)(OC)OC`, which log10 Koc (L/kg) is on record?
Answer: The log10 Koc (L/kg) was 0.85.

Question: With `CC(C)COCCO` as the compound, how does the boiling point read?
Answer: Its boiling point is 160 °C.

Question: With `CCCCCCCCCCCCCCCC(=O)OC(C)C` as the compound, how does the log10 vapour pressure (mmHg) read?
Answer: Its log10 vapour pressure (mmHg) is -4.25.

Question: And the melting point?
Answer: The melting point was 13.5 °C.

Question: With `COc1c(Cl)ccc(Cl)c1C(=O)O` as the compound, how does the log10 Koc (L/kg) read?
Answer: The log10 Koc (L/kg) was 1.5.

Question: What about the log10 vapour pressure (mmHg) of the same compound?
Answer: Its log10 vapour pressure (mmHg) is -4.47.

Question: And the melting point?
Answer: Its melting point is 115 °C.

Question: What does the source list for `Fc1ccc(F)cc1`?
Answer: boiling point: 89 °C; log10 vapour pressure (mmHg): 1.81; melting point: -13 °C

Question: For `CCC(C)I` (stereo not given), which boiling point is on record?
Answer: The boiling point was 120 °C.

Question: What about the log10 vapour pressure (mmHg) of the same compound?
Answer: The log10 vapour pressure (mmHg) was 1.23.

Question: And the melting point?
Answer: Its melting point is -104 °C.

Question: With `CC1CCCCCCCCCCCCC(=O)C1` (stereo not given) as the compound, how does the boiling point read?
Answer: The boiling point was 329 °C.

Question: For `Nc1ccc2c(c1N)C(=O)c1ccccc1C2=O`, which melting point is on record?
Answer: Its melting point is 290 °C.

Question: Which boiling point does the source give for `C=CC(C)(O)CCC=C(C)C` (stereo not given) here?
Answer: Its boiling point is 198 °C.

Question: And the log10 Henry constant (atm·m³/mol)?
Answer: Its log10 Henry constant (atm·m³/mol) is -4.67.

Question: And the log10 vapour pressure (mmHg)?
Answer: Its log10 vapour pressure (mmHg) is -0.796.

Question: What about the ready biodegradability of the same compound?
Answer: Its ready biodegradability is “readily biodegradable”.

Question: Which log10 vapour pressure (mmHg) does the source give for `O=C1CC(=O)NC(=O)N1` here?
Answer: Its log10 vapour pressure (mmHg) is -7.82.

Question: What about the melting point of the same compound?
Answer: The melting point was 248 °C.

Question: What about the ready biodegradability of the same compound?
Answer: Its ready biodegradability is “readily biodegradable”.

Question: With `Nc1ccc(S(=O)(=O)c2ccc(NCC(=O)O)cc2)cc1` as the compound, how does the melting point read?
Answer: Its melting point is 194 °C.

Question: Which ready biodegradability does the source give for `CCCCCCCCCCCCCCCCCC(=O)NCCNC(=O)CCCCCCCCCCCCCCCCC` here?
Answer: Its ready biodegradability is “not readily biodegradable”.

Question: Which melting point does the source give for `NC(=O)NNc1ccccc1` here?
Answer: The melting point was 172 °C.

Question: Which melting point does the source give for `O=C(O)c1ccc(F)c(F)c1` here?
Answer: Its melting point is 123 °C.

Question: Which boiling point does the source give for `CN1C(=O)c2ccc([N+](=O)[O-])cc2C1=O` here?
Answer: The boiling point was 361 °C.

Question: For `FC(F)(F)C(F)(F)C(F)(C(F)(F)F)C(F)(F)C(F)(F)F`, which boiling point is on record?
Answer: The boiling point was 58.4 °C.

Question: And the melting point?
Answer: Its melting point is -115 °C.

Question: With `Clc1cc(Cl)c2cccc(Cl)c2c1` as the compound, how does the log10 Koa read?
Answer: The log10 Koa was 7.32.

Question: For `C=CCCl`, which boiling point is on record?
Answer: Its boiling point is 45.1 °C.

Question: And the log10 vapour pressure (mmHg)?
Answer: The log10 vapour pressure (mmHg) was 2.57.

Question: And the melting point?
Answer: Its melting point is -134 °C.

Question: And the ready biodegradability?
Answer: The ready biodegradability was “readily biodegradable”.

Question: For `CCCCCO`, which boiling point is on record?
Answer: The boiling point was 138 °C.

Question: What about the log10 Henry constant (atm·m³/mol) of the same compound?
Answer: The log10 Henry constant (atm·m³/mol) was -4.89.

Question: What about the log10 Koa of the same compound?
Answer: The log10 Koa was 4.69.

Question: What about the log10 Koc (L/kg) of the same compound?
Answer: Its log10 Koc (L/kg) is 0.7.

Question: What about the log10 vapour pressure (mmHg) of the same compound?
Answer: The log10 vapour pressure (mmHg) was 0.342.

Question: What about the melting point of the same compound?
Answer: The melting point was -78.9 °C.

Question: And the ready biodegradability?
Answer: Its ready biodegradability is “readily biodegradable”.

Question: Which log10 vapour pressure (mmHg) does the source give for `CCCCCCCCC(=O)OCCCC` here?
Answer: Its log10 vapour pressure (mmHg) is -1.67.

Question: What about the melting point of the same compound?
Answer: Its melting point is -38 °C.

Question: For `Cc1ccc2nc(C)[nH]c2c1`, which boiling point is on record?
Answer: Its boiling point is 350 °C.

Question: And the melting point?
Answer: The melting point was 203 °C.

Question: With `Cc1c2ccccc2cc2c1ccc1ccccc12` as the compound, how does the melting point read?
Answer: Its melting point is 141 °C.

Question: For `CC(Cl)(Cl)CCl`, which boiling point is on record?
Answer: The boiling point was 124 °C.

Question: With `CCCCCOC(=O)CCC(=O)OCCCCC` as the compound, how does the melting point read?
Answer: Its melting point is -10.8 °C.

Question: With `O=C(c1ccc(Cl)cc1)c1ccc(Cl)cc1` as the compound, how does the boiling point read?
Answer: Its boiling point is 353 °C.

Question: And the melting point?
Answer: Its melting point is 148 °C.

Question: For `NCC(CC(=O)O)c1ccc(Cl)cc1` (stereo not given), which melting point is on record?
Answer: Its melting point is 207 °C.

Question: Which melting point does the source give for `CC(=O)Nc1ccc([N+](=O)[O-])cc1` here?
Answer: The melting point was 216 °C.

Question: For `CCC(O)C(=O)O` (stereo not given), which melting point is on record?
Answer: Its melting point is 44.2 °C.

Question: Which log10 vapour pressure (mmHg) does the source give for `CNC(=O)Oc1ccc(C)c(C)c1` here?
Answer: Its log10 vapour pressure (mmHg) is -3.24.

Question: What about the melting point of the same compound?
Answer: The melting point was 79.5 °C.

Question: Which ready biodegradability does the source give for `COP1(=S)OCc2ccccc2O1` (stereo not given) here?
Answer: Its ready biodegradability is “not readily biodegradable”.

Question: Which ready biodegradability does the source give for `COc1ccc(NC(C)=O)cc1N` here?
Answer: The ready biodegradability was “not readily biodegradable”.

Question: For `O=Cc1cccc2ccccc12`, which boiling point is on record?
Answer: Its boiling point is 292 °C.

Question: What about the melting point of the same compound?
Answer: The melting point was 33.5 °C.

Question: With `CCOCCCl` as the compound, how does the boiling point read?
Answer: Its boiling point is 108 °C.

Question: For `CCCOCCN(C(=O)CCl)c1c(CC)cccc1CC`, which log10 Henry constant (atm·m³/mol) is on record?
Answer: Its log10 Henry constant (atm·m³/mol) is -8.1.

Question: And the log10 vapour pressure (mmHg)?
Answer: Its log10 vapour pressure (mmHg) is -6.

Question: For `CC1=CCC2C(C1)C2(C)C` (stereo not given), which boiling point is on record?
Answer: The boiling point was 170 °C.

Question: Which boiling point does the source give for `c1ccc(-c2cccc(-c3ccccc3)c2)cc1` here?
Answer: Its boiling point is 363 °C.

Question: And the log10 vapour pressure (mmHg)?
Answer: The log10 vapour pressure (mmHg) was -4.76.

Question: And the melting point?
Answer: The melting point was 87 °C.

Question: With `CCCCN(C)C(=O)Nc1ccc(Cl)c(Cl)c1` as the compound, how does the log10 Koc (L/kg) read?
Answer: The log10 Koc (L/kg) was 3.4.

Question: What about the melting point of the same compound?
Answer: Its melting point is 102 °C.

Question: And the ready biodegradability?
Answer: Its ready biodegradability is “not readily biodegradable”.

Question: With `CCCCCCCCCC(C)C=O` (stereo not given) as the compound, how does the boiling point read?
Answer: Its boiling point is 171 °C.

Question: Which melting point does the source give for `Oc1ccc(Cl)c(Cl)c1Cl` here?
Answer: Its melting point is 83.5 °C.

Question: For `CN(C)CCCO`, which boiling point is on record?
Answer: Its boiling point is 164 °C.

Question: For `COc1ccc2ccc(=O)oc2c1CC=C(C)C`, which melting point is on record?
Answer: The melting point was 83.5 °C.

Question: With `CC1CCCC1C` (stereo not given) as the compound, how does the log10 biodegradation half-life (days) read?
Answer: The log10 biodegradation half-life (days) was 0.602.

Question: What about the log10 vapour pressure (mmHg) of the same compound?
Answer: Its log10 vapour pressure (mmHg) is 1.67.

Question: Which melting point does the source give for `CCOC(=O)c1cc2ccccc2[nH]1` here?
Answer: Its melting point is 124 °C.

Question: Which boiling point does the source give for `CC(C)COS(=O)OCC(C)C` here?
Answer: The boiling point was 210 °C.

Question: Which melting point does the source give for `CCCCCCN1CC(C(=O)O)CC1=O` (stereo not given) here?
Answer: The melting point was 42.5 °C.
